The subject of this experiment is intracellular cGMP in CGY-Del1-expressing HEK293 cells. Put plainly: Intracellular cGMP detected by emission ratio in CGY-expressing HEK293 cells stimulated with NOC-7. Type of experiment: cell-based, Human. The method, then: Human embryonic kidney cells (HEK293) were cultured in Dulbecco's modified eagle medium supplemented with 10% FCS, 1 mM sodium pyruvate, and 0.1 mM nonessential amino acids at 37° C. in 5% CO2, to give HEK293 cells.
The resulting HEK293 cells were transfected by the same method as in Example 2 with CGY-Del1, CGY-Del2, CGY-Del3 and CGY-Del4 expression vectors, to give HEK293 cells expressing each type of CGY.
The cGMP-visualizing probes were used to detect intracellular cGMP generated upon stimulation of the living cells with nitrogen monoxide (NO).
First, to activate the soluble guanylyl cyclase in the HEK293 cells having CGY-Del1 introduced therein obtained in Example 6, NOC-7, a compound for releasing NO spontaneously in a rate-controlled manner, was added to give its final extracellular concentration of 500 μM.
Accordingly, 1 mM 8-Br-cGMP, a phosphodiesterase-resistant analogue of cGMP, was added to the system described above.

Structures are written as SMILES.

Turning to `Nc1nc2c(nc(Br)n2[C@@H]2O[C@@H]3COP(=O)(O)O[C@H]3[C@H]2O)c(=O)[nH]1` [8-Br-cGMP], the “emission ratio on addition after NOC-7-induced decrease and recovery” value (added 900 seconds after 500 μM NOC-7, 1 mM 8-Br-cGMP) is recorded as “decreased again”.

Consider `CNCCCN(C)/[N+]([O-])=N/O` [NOC-7], for which the “emission ratio upon addition of NOC-7” value (500 μM NOC-7) is “rapidly decreased”.

Take `O=c1onc2cnc3ccccc3n12` [ODQ]: the “NOC-7-induced emission ratio change in cells pre-treated with ODQ” value (10 μM ODQ, 500 μM NOC-7) was “change in the emission ratio elicited by NOC-7 was not observed”.

`CCCOc1ccccc1-c1nc2nn[nH]c2c(=O)[nH]1` [zaprinast]: for the setting “100 μM zaprinast, 500 μM NOC-7”, the “NOC-7-induced emission ratio change in cells treated with zaprinast” value was “later slower increase in the emission ratio was not observed”.

The values above are taken from patent publication US7329494B2, “Method of detection and quantification of cGMP by using a cGMP-visualizing probe” (Japan Science and Technology Corporation, priority 2000, dated 2008).
